Assay results taken from article PMC3038857, “Using Nuclear Receptor Activity to Stratify Hepatocarcinogens” (PLoS ONE, 2011).
Read-outs that look alike come from different tables or passages of the source.

Experiments:
Mouse Liver [1] = conditions: ref ToxRefDB, cited from earlier work
Mouse Liver [2] = conditions: mouse chronic study, liver; coded 6 / Inf, code not explained in table; ref ToxRefDB; cited from earlier work
Rat Liver [3] = conditions: ref ToxRefDB, cited from earlier work
Rat Liver [4] = conditions: ref ToxRefDB, cited from earlier work; remark: listed apart in the source
Rat Liver [5] = conditions: ref ToxRefDB, cited from earlier work; remark: listed apart in the source
CYP2B6 = test: CLZD_CYP2B6: Change in expression of CYP2B6 (primary human hepatocytes); type: cell-based; conditions: 24 hr
Experimental: (§1) This is a collection of multiplexed gene expression assays focused on Phase I and II xenobiotic metabolizing enzymes and transporters. Human primary cell cultures were treated with chemicals at 5 concentrations (0.004-40 [drawing 42] M) for 6, 24 and 48 hr. Concentration- and time-response profiles of chemicals were measured by the expression of key nuclear receptor target genes, activities of CYP1A enzymes (EROD), and cell morphology. Fourteen gene targets were monitored by quantitative nuclease protection assay including: six representative cytochrome P-450 genes, four hepatic transporters, three Phase II conjugating enzymes, and one endogenous metabolism gene involved in cholesterol synthesis. The target genes associated with nuclear receptor pathways are as follows: [drawing 43] and [drawing 44] with [drawing 45]; [drawing 46] , [drawing 47] , [drawing 48] , [drawing 49] , [drawing 50] and [drawing 51] with [drawing 52]; [drawing 53] , [drawing 54] , [drawing 55] and [drawing 56] with [drawing 57]; [drawing 58] with [drawing 59]; and [drawing 60] with [drawing 61] . Assays were run in primary human hepatocyte cultures by CellzDirect Invitrogen Inc. (Durham, NC), in collaboration with EPA.
(§2) Multiplexed Gene Expression in Human Primary Hepatocytes: This is a collection of multiplexed gene expression assays focused on Phase I and II metabolic enzymes and transporters. […] Fourteen gene targets were monitored by quantitative nuclease protection assay: six representative cytochrome P450 genes, four hepatic transporters, three Phase II conjugating enzymes, and one endogenous metabolism gene involved in cholesterol synthesis. Cells were exposed at 5 concentrations (0.004-40 µM) for 6, 24 or 48 hr. Gene targets are sentinels for five nuclear receptor signaling pathways: AhR, CAR, PXR, FXR, and PPARα. All gene are associated with nuclear receptor pathways: CYP1A1 and CYP1A2 with AHR; ABCB1, ABCG2, CYP2B6, CYP2C9, CYP2C19 and UGT1A1 with CAR; CYP3A4, GSTA2, SLCO1B1 and SULT2A1 with PXR; HMGCS2 with PPARA; and ABCB11 with FXR. […] Detailed description of the methods, data and analysis methods for this dataset will be presented in a separate publication.

CYP3A4 = test: CLZD_CYP3A4: Change in expression of CYP3A4 (primary human hepatocytes); type: cell-based; conditions: 24 hr
Experimental: as §1, §2

PXR (NR1I2) = molecular target: T1, PXR (NR1I2) (Homo sapiens, UniProt O75469); test: ATG_PXRE_CIS: Factorial reporter gene assay (HepG2); type: cell-based; parameters: endogenous in cells; host or cells: HepG2
T1 sequence (O75469 1-434): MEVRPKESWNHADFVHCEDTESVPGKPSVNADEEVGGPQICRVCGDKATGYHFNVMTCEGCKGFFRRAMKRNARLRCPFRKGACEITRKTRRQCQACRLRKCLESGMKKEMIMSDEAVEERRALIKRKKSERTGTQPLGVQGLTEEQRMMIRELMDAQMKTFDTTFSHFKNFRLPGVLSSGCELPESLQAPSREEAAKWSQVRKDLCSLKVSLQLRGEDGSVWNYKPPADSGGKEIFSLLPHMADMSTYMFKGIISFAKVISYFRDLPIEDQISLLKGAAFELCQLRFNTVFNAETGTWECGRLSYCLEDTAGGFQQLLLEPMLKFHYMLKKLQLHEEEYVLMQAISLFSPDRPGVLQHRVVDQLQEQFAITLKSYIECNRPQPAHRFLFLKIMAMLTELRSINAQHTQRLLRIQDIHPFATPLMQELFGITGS
Experimental: A multiple reporter transcription unit (MRTU) library consisting of 48 transcription factor binding sites was transfected into the HepG2 human liver hepatoma cell line. In addition to the cis-acting reporter genes (CIS), a modification of the approach was used to generate a trans-system (TRANS) with a mammalian one-hybrid assay consisting of an additional 25 MRTU library reporting the activity of nuclear receptor super-family members. […] These assays were performed by Attagene Inc. (Morrisville NC) under contract to EPA.
In addition to the cis-acting reporter genes (CIS), a modification of the approach was used to generate a trans-system (TRANS) with a mammalian one-hybrid assay consisting of an additional 25 MRTU library reporting the activity of nuclear receptor super-family members. […] Chemicals were then tested in the CIS and TRANS assays at seven concentrations starting at the MTC and followed by three-fold serial dilutions. These assays were performed by Attagene Inc. (Morrisville NC) under contract to EPA. Detailed description of the methods, data and analysis methods for this dataset will be presented in a separate publication.

CYP1A2 = test: CLZD_CYP1A2: Change in expression of CYP1A2 (primary human hepatocytes); type: cell-based; conditions: 24 hr
Experimental: as §1, §2

CYP1A1 = test: CLZD_CYP1A1: Change in expression of CYP1A1 (primary human hepatocytes); type: cell-based; conditions: 24 hr
Experimental: as §1, §2

[6] = mouse chronic study, liver, coded 6 / Inf, code not explained in table
[7] = rat chronic study, liver, coded 6 / 0, code not explained in table

SMILES | CHR_Mouse_Liver_1_AnyLesion (Mouse Liver [1]; [6]) | CHR_Mouse_Liver_2_PreneoplasticLesion (Mouse Liver [2]) | CHR_Rat_Liver_1_AnyLesion (Rat Liver [3]; [7]) | CHR_Rat_Liver_2_PreneoplasticLesion (Rat Liver [4]; [7]) | CHR_Rat_Liver_3_NeoplasticLesion (Rat Liver [5]; [7]) | CLZD_CYP2B6_24 (CYP2B6) | CLZD_CYP3A4_24 (CYP3A4) | ATG_PXRE_CIS (PXR (NR1I2); HepG2) | also measured
COC(=O)c1c(C(F)F)nc(C(F)(F)F)c(C2=NCCS2)c1CC(C)C [chemical 297] | 6 | 6 | 6 | 0 | 0 | – | – | – | –
O=C(Nc1ccccc1)Nc1cnns1 [chemical 298] | 6 | 6 | 0 | 0 | 0 | – | – | – | –
COc1nc(C)nc(NC(=O)NS(=O)(=O)c2ccccc2OCCCl)n1 [chemical 307] | 6 | 6 | 0 | 0 | 0 | – | – | – | –
CCCOC/C(=N\c1ccc(Cl)cc1C(F)(F)F)n1ccnc1 [chemical 315] | 6 | 6 | 6 | 6 | 0 | – | – | – | –
COc1cnc(OC)n2nc(NS(=O)(=O)c3c(OCC(F)F)cccc3C(F)(F)F)nc12 [r239] | – | – | – | – | – | 4.844 | 4.931 | 4.585 | CHR_Rat_Liver_1_AnyLesion (Rat Liver [3]; rat, chronic study): 6; CHR_Rat_Liver_2_PreneoplasticLesion (Rat Liver [4]; rat, chronic study): 0; CHR_Rat_Liver_3_NeoplasticLesion (Rat Liver [5]; rat, chronic study): 0
Cc1nc(N(C)C)nc(OC(=O)N(C)C)c1C [r247] | – | – | – | – | – | 5.267 | – | 4.301 | CLZD_CYP1A2_24 (CYP1A2): 5.15
COc1nc(NC(C)C)nc(NC(C)C)n1 [r255] | – | – | – | – | – | 4.907 | 5.515 | 4.553 | CLZD_CYP1A1_24 (CYP1A1): 5.078; CHR_Mouse_Liver_1_AnyLesion (Mouse Liver [1]; mouse, chronic study): 6; CHR_Rat_Liver_1_AnyLesion (Rat Liver [3]; rat, chronic study): 0; CHR_Rat_Liver_2_PreneoplasticLesion (Rat Liver [4]; rat, chronic study): 0; CHR_Rat_Liver_3_NeoplasticLesion (Rat Liver [5]; rat, chronic study): 0
COc1nc(C)nc(NC(=O)NS(=O)(=O)c2ccccc2CCC(F)(F)F)n1 [r266] | – | – | – | – | – | 5.694 | 5.037 | – | CHR_Mouse_Liver_1_AnyLesion (Mouse Liver [1]; chronic study, mouse liver): 6; CHR_Rat_Liver_1_AnyLesion (Rat Liver [3]; chronic study, rat liver): 0; CHR_Rat_Liver_2_PreneoplasticLesion (Rat Liver [4]; chronic study, rat liver): 0; CHR_Rat_Liver_3_NeoplasticLesion (Rat Liver [5]; chronic study, rat liver): 0; ATG_PXRE_CIS (PXR (NR1I2); HepG2 reporter): 4.377
